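Five compound concentrations were applied to cells in 96-well plates for 48 hours; endpoints were derived by simple linear interpolation of the resulting dose-response curve. GI50: concentration for 50% inhibition of growth.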 Active and inactive are the calls of the source. Cut-off read from the data, not from the text of the source: active = GI50 up to about 1.1 µM and inactive = higher.
Legend:
Assay in all cases: NCI-60 cell line screen, 48 h
Malme-3M = system: Malme-3M
SK-MEL-28 = system: SK-MEL-28
SK-MEL-2 = system: SK-MEL-2
HCT-116 = system: HCT-116
PC-3 = system: PC-3
NCI-H226 = system: NCI-H226
OVCAR-8 = system: OVCAR-8
SNB-75 = system: SNB-75
MDA-N = system: MDA-N
IGROV-1 = system: IGROV-1
M14 = system: M14
DU-145 = system: DU-145
A549 = system: A549
BT-549 = system: BT-549
SF-268 = system: SF-268
MOLT-4 = system: MOLT-4
OVCAR-3 = system: OVCAR-3
HCT-15 = system: HCT-15
HCC 2998 = system: HCC 2998
RXF 393 = system: RXF 393

| Compound | GI50 (Malme-3M) | GI50 (SK-MEL-28) | GI50 (SK-MEL-2) | GI50 (HCT-116) | GI50 (PC-3) | GI50 (NCI-H226) | GI50 (OVCAR-8) | GI50 (SNB-75) | GI50 (MDA-N) | GI50 (IGROV-1) | GI50 (M14) | GI50 (DU-145) | GI50 (A549) | GI50 (BT-549) | GI50 (SF-268) | GI50 (MOLT-4) | GI50 (OVCAR-3) | GI50 (HCT-15) [µM] | GI50 (HCC 2998) | GI50 (RXF 393) |
| --- | --- | --- | --- | --- | --- | --- | --- | --- | --- | --- | --- | --- | --- | --- | --- | --- | --- | --- | --- | --- |
| CC1=CC2=C(C(N)=O)C(=O)OC2(C)C(c2ccccc2)C1 (stereo not drawn) | > 100 µM (inactive) | > 100 µM (inactive) | > 100 µM (inactive) | > 100 µM (inactive) | > 100 µM (inactive) | > 100 µM (inactive) | > 100 µM (inactive) | 3.03 µM (inactive) | > 100 µM (inactive) | > 100 µM (inactive) | > 100 µM (inactive) | > 100 µM (inactive) | > 100 µM (inactive) | > 100 µM (inactive) | > 100 µM (inactive) | > 100 µM (inactive) | > 100 µM (inactive) | > 100 | – | – |
| CC1OC(OC2C(OC(=O)[C@@H]3CC(C)(C)C[C@@H]4C5=CC[C@@H]6[C@@]7(C)C[C@H](O)[C@H](OC8OC(CO)C(O)C(O)C8O)[C@@](C)(CO)C7[C@H](O)C[C@@]6(C)[C@]5(C)C[C@@H](O)[C@H]43)OCC(O)C2O)C(O)C(O)C1O (stereo partly drawn) | – | – | > 15 µM (inactive) | 7.57 µM (inactive) | > 15 µM (inactive) | > 15 µM (inactive) | > 15 µM (inactive) | > 15 µM (inactive) | – | > 15 µM (inactive) | > 15 µM (inactive) | > 15 µM (inactive) | – | > 15 µM (inactive) | > 15 µM (inactive) | > 15 µM (inactive) | > 15 µM (inactive) | > 15 | 8.69 µM (inactive) | 7.45 µM (inactive) |
| CC1=NN(c2nc(N)nc(C/C(N)=N/O)n2)C(C)(C)C1 | > 100 µM (inactive) | > 100 µM (inactive) | – | > 100 µM (inactive) | – | > 100 µM (inactive) | > 100 µM (inactive) | > 100 µM (inactive) | – | > 100 µM (inactive) | > 100 µM (inactive) | > 100 µM (inactive) | > 100 µM (inactive) | > 100 µM (inactive) | > 100 µM (inactive) | > 100 µM (inactive) | > 100 µM (inactive) | > 100 | > 100 µM (inactive) | – |
| O=C1c2ccc3ccccc3c2CCC1N1CCCCC1 (stereo not drawn) | 17.6 µM (inactive) | 18.1 µM (inactive) | 19.6 µM (inactive) | 17.8 µM (inactive) | 17.4 µM (inactive) | 15.8 µM (inactive) | 20.7 µM (inactive) | 17.4 µM (inactive) | – | 15.2 µM (inactive) | – | 16.7 µM (inactive) | 19.5 µM (inactive) | 23.3 µM (inactive) | 19.1 µM (inactive) | – | 15.4 µM (inactive) | 20.2 | – | 20.6 µM (inactive) |
| O=C1CC(c2ccc([N+](=O)[O-])cc2)C2(C(=O)NC(=S)NC2=O)C(c2ccc([N+](=O)[O-])cc2)C1 (stereo not drawn) | 12.2 µM (inactive) | 40.7 µM (inactive) | – | 16.7 µM (inactive) | 30.5 µM (inactive) | 15.7 µM (inactive) | 19.3 µM (inactive) | > 100 µM (inactive) | 31.4 µM (inactive) | 16.3 µM (inactive) | 19 µM (inactive) | 31.8 µM (inactive) | 19.6 µM (inactive) | 17 µM (inactive) | 21.4 µM (inactive) | 73.3 µM (inactive) | 32 µM (inactive) | 18.9 | 24.4 µM (inactive) | – |
| CC1(C)S[C@@H]2[C@H](NC(=O)/C=C/c3ccccc3)C(=O)N2[C@H]1C(=O)O | > 100 µM (inactive) | 69.5 µM (inactive) | > 100 µM (inactive) | > 100 µM (inactive) | > 100 µM (inactive) | > 100 µM (inactive) | > 100 µM (inactive) | 47.9 µM (inactive) | > 100 µM (inactive) | > 100 µM (inactive) | > 100 µM (inactive) | > 100 µM (inactive) | > 100 µM (inactive) | > 100 µM (inactive) | > 100 µM (inactive) | > 100 µM (inactive) | > 100 µM (inactive) | > 100 | > 100 µM (inactive) | – |

Reference: ChEMBL document CHEMBL1201862, “PubChem BioAssay data set” (2004)
